Biological target: T1, mutant CFTR (Homo sapiens, UniProt P13569, DEL508-508)
T1 construct: expressed in transfected cells
Experiment: Fluorescence (HS-YFP) assay for CFTR activity, corrector assay
Type: cell-based
Conditions: CFBE41o- and FRT cells with stable expression of mutant CFTR, 24 h compound treatment
Method in brief: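 CFBE41o- or FRT cells stably expressing mutant CFTR and HS-YFP were exposed to compounds for 24 h (corrector mode), then stimulated 30 min at 37° C with forskolin (20 μM) plus genistein (50 μM). YFP quenching after 100 mM iodide injection; initial slope from exponential fit of final 10 s; EC50 reported.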

T1 sequence (P13569 with tags, fused parts or gaps DEL508-508): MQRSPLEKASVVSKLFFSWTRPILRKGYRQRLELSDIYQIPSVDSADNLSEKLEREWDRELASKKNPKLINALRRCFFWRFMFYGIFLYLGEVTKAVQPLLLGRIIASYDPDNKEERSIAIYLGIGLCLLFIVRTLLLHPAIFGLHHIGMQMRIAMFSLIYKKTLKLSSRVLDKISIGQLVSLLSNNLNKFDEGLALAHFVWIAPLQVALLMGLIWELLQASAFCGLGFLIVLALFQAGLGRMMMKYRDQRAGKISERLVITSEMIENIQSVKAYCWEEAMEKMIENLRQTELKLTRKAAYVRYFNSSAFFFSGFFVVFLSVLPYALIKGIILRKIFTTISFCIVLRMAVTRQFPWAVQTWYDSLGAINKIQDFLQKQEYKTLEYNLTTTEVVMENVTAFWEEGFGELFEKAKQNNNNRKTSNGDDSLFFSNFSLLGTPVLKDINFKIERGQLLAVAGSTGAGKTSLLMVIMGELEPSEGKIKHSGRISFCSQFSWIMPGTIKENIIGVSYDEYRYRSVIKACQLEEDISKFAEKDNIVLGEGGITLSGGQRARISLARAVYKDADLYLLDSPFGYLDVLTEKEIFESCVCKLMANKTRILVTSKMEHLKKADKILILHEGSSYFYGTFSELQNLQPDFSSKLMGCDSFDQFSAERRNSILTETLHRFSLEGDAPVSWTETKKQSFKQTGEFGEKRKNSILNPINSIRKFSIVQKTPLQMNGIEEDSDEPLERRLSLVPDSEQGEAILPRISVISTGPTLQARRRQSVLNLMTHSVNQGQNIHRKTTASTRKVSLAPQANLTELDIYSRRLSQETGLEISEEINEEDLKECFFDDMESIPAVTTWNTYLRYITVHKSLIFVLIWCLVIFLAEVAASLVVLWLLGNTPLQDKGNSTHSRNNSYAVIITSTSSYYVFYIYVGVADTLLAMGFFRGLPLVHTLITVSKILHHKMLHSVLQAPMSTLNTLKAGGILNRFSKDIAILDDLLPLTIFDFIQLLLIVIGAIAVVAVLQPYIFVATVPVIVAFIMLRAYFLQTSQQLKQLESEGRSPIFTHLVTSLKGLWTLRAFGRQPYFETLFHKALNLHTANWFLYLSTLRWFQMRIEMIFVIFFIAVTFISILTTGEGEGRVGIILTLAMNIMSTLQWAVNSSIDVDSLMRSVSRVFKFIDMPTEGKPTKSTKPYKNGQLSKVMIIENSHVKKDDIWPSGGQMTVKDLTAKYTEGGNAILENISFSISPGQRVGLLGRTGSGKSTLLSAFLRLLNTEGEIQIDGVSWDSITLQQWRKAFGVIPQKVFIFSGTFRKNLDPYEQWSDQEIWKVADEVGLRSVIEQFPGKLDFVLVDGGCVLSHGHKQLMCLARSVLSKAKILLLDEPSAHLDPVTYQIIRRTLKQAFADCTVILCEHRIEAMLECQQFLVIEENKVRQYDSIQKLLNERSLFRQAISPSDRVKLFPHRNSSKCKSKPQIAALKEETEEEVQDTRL

Compound | EC50
Cc1nn(-c2cccc(C(=O)N(C)c3ccc4c(c3)OCO4)n2)c(C)c1Cl [compound 050, N-(1,3-Benzodioxol-5-yl)-6-(4-chloro-3,5-dimethyl-pyrazol-1-yl)-N-methyl-pyridine-2-carboxamide] | > 2000 nM
Cc1nn(-c2cccc(C(=O)N(C)c3ccc4c(c3)OCO4)c2)c(C(=O)N(C)C)c1Cl [compound 088, 2-[3-[1,3-benzodioxol-5-yl(methyl)carbamoyl]phenyl]-4-chloro-N,N,5-trimethyl-pyrazole-3-carboxamide] | > 2000 nM
COC(=O)c1ccc(COc2c(Cl)c(C(F)(F)F)nn2-c2cccc(C(=O)N(C)c3ccc4c(c3)OCO4)c2)cc1 [compound 155, Methyl 4-[[2-[3-[1,3-benzodioxol-5-yl(methyl)carbamoyl]phenyl]-4-chloro-5-(trifluoromethyl)pyrazol-3-yl]oxymethyl]benzoate] | < 1000 nM
Cc1cc(C2CC2)n(-c2cccc(C(=O)N(C)c3ccc4c(c3)OCO4)c2)n1 [compound 097, N-(1,3-Benzodioxol-5-yl)-3-(5-cyclopropyl-3-methyl-pyrazol-1-yl)-N-methyl-benzamide] | < 1000 nM
Cc1nn(-c2cccc(C(=O)N(C)c3ccc4c(c3)OCO4)c2)c(C=O)c1Cl [compound 112, N-(1,3-benzodioxol-5-yl)-3-(4-chloro-5-formyl-3-methyl-pyrazol-1-yl)-N-methyl-benzamide] | < 1000 nM
CCOC(=O)c1c(C)nn(-c2cccc(C(=O)N(C)c3ccc4c(c3)OCO4)c2)c1C [compound 043, Ethyl 1-[3-[1,3-benzodioxol-5-yl(methyl)carbamoyl]phenyl]-3,5-dimethyl-pyrazole-4-carboxylate] | > 2000 nM
CN(C(=O)c1cccc(-n2nc(C(F)(F)F)c(Cl)c2OCc2ccc(C(=O)O)cc2)c1)c1ccc2c(c1)OC(F)(F)O2 [compound 211, 4-[[4-Chloro-2-[3-[(2,2-difluoro-1,3-benzodioxol-5-yl)-methyl-carbamoyl]phenyl]-5-(trifluoromethyl)pyrazol-3-yl]oxymethyl]benzoic acid] | < 1000 nM
Cc1nn(-c2cccc(C(=O)N(C)c3ccc4c(c3)OCO4)c2)c(C(=O)c2ccccc2)c1Cl [compound 119, N-(1,3-benzodioxol-5-yl)-3-(5-benzoyl-4-chloro-3-methyl-pyrazol-1-yl)-N-methyl-benzamide] | < 1000 nM
CN(C(=O)c1cccc(-n2nc(C(F)(F)F)c(C#N)c2COc2ccc(C(=O)O)cc2)c1)c1ccc2c(c1)OC(F)(F)O2 [compound 224, 4-[[4-Cyano-2-[3-[(2,2-difluoro-1,3-benzodioxol-5-yl)-methyl-carbamoyl]phenyl]-5-(trifluoromethyl)pyrazol-3-yl]methoxy]benzoic acid] | < 1000 nM
Cc1cc(CO)n(-c2cccc(C(=O)N(C)c3ccc4c(c3)OCO4)c2)n1 [compound 070, N-(1,3-Benzodioxol-5-yl)-3-[5-(hydroxymethyl)-3-methyl-pyrazol-1-yl]-N-methyl-benzamide] | > 2000 nM
CN(C(=O)c1cccc(-n2nc(C(F)(F)F)c(Cl)c2COC2CC(C(=O)O)C2)c1)c1ccc2c(c1)OC(F)(F)O2 (stereo not drawn) [compound 257, 3-[[4-Chloro-2-[3-[(2,2-difluoro-1,3-benzodioxol-5-yl)-methyl-carbamoyl]phenyl]-5-(trifluoromethyl)pyrazol-3-yl]methoxy]cyclobutanecarboxylic acid] | < 1000 nM
Cc1nn(-c2cccc(C(=O)N(C)c3ccc4c(c3)OCO4)c2)c(C(F)(F)F)c1Cl [compound 102, N-(1,3-Benzodioxol-5-yl)-3-[4-chloro-3-methyl-5-(trifluoromethyl)pyrazol-1-yl]-N-methyl-benzamide] | < 1000 nM
Cc1c(Cl)c(C(F)(F)F)nn1-c1cccc(C(=O)Nc2ccc3c(c2)OCO3)c1 [compound 128, N-(1,3-Benzodioxol-5-yl)-3-[4-chloro-5-methyl-3-(trifluoromethyl)pyrazol-1-yl]benzamide] | > 2000 nM
Cc1nn(-c2cccc(C(=O)Nc3ccc4c(c3)OCCN4)c2)c(C)c1Cl [Int-018, 3-(4-chloro-3,5-dimethyl-pyrazol-1-yl)-N-(3,4-dihydro-2H-1,4-benzoxazin-7-yl)benzamide] | > 2000 nM
Cc1c(Cl)c(C(F)(F)F)nn1-c1cccc(C(=O)Nc2cc3c(cc2C=O)OCO3)c1 [Int-160, 3-[4-chloro-5-methyl-3-(trifluoromethyl)pyrazol-1-yl]-N-(6-formyl-1,3-benzodioxol-5-yl)benzamide] | > 2000 nM
[2H]C([2H])([2H])N(C(=O)c1cccc(-n2nc(C(F)(F)F)c(Cl)c2C2CC2)c1)c1ccc2nc(C)oc2c1 [compound 138, 3-[4-Chloro-5-cyclopropyl-3-(trifluoromethyl)pyrazol-1-yl]-N-(2-methyl-1,3-benzoxazol-6-yl)-N-(trideuteriomethyl)benzamide] | < 1000 nM
Cc1noc2cc(N(C)C(=O)c3cccc(-n4nc(C(F)(F)F)c(Cl)c4COc4ccc(C(=O)O)cc4)c3)ccc12 [compound 245, 4-[[4-Chloro-2-[3-[methyl-(3-methyl-1,2-benzoxazol-6-yl)carbamoyl]phenyl]-5-(trifluoromethyl)pyrazol-3-yl]methoxy]benzoic acid] | < 1000 nM

Compound | EC50
COc1nc2cc(NC(=O)c3cccc(-n4nc(C)c(Cl)c4C)c3)ccc2o1 [Int-063, 3-(4-Chloro-3,5-dimethyl-pyrazol-1-yl)-N-(2-methoxy-1,3-benzoxazol-5-yl)benzamide] | > 2000 nM
CN(C(=O)c1cccc(-n2nc(C(F)(F)F)c(C#N)c2COc2ccc(C(=O)OC(C)(C)C)cc2)c1)c1ccc2c(c1)OC(F)(F)O2 [compound 259, Tert-butyl 4-[[4-cyano-2-[3-[(2,2-difluoro-1,3-benzodioxol-5-yl)-methyl-carbamoyl]phenyl]-5-(trifluoromethyl)pyrazol-3-yl]methoxy]benzoate] | < 1000 nM
CN(C(=O)c1cccc(-n2nc(C(F)(F)F)c(C#N)c2Oc2ccccc2)c1)c1ccc2c(c1)OCO2 [compound 185, N-(1,3-Benzodioxol-5-yl)-3-[4-cyano-5-phenoxy-3-(trifluoromethyl)pyrazol-1-yl]-N-methyl-benzamide] | < 1000 nM
CN(C(=O)c1cccc(-n2nc(C(F)F)c(C#N)c2COc2ccc(C(=O)O)cc2)c1)c1ccc2c(c1)OC(F)(F)O2 [compound 268, 4-[[4-cyano-2-[3-[(2,2-difluoro-1,3-benzodioxol-5-yl)-methyl-carbamoyl]phenyl]-5-(difluoromethyl)pyrazol-3-yl]methoxy]benzoic acid] | < 1000 nM
Cc1nc2ccc(N(C)C(=O)c3cccc(-n4nc(C(F)(F)F)c(Cl)c4C4CC4)c3)cc2o1 [compound 137, 3-[4-Chloro-5-cyclopropyl-3-(trifluoromethyl)pyrazol-1-yl]-N-methyl-N-(2-methyl-3-benzoxazol-6-yl)benzamide] | < 1000 nM
Cc1c(Cl)c(C(F)(F)F)nn1-c1cccc(C(=O)N(C)c2ccc3c(c2)OCCO3)c1 [compound 096, 3-[4-Chloro-5-methyl-3-(trifluoromethyl)pyrazol-1-yl]-N-(2,3-dihydro-1,4-benzodioxin-6-yl)-N-methyl-benzamide] | < 1000 nM
CN(C(=O)c1cccc(-n2nc(C(F)(F)F)cc2-c2ccc(Cl)s2)c1)c1ccc2c(c1)OCO2 [compound 164, N-(1,3-Benzodioxol-5-yl)-3-[5-(5-chloro-2-thienyl)-3-(trifluoromethyl)pyrazol-1-yl]-N-methyl-benzamide] | < 1000 nM
Cc1cc2cc(N(C)C(=O)c3cccc(-n4nc(C(F)(F)F)c(Cl)c4COc4ccc(C(=O)O)cc4)c3)ccn2n1 [compound 239, 4-[[4-Chloro-2-[3-[methyl-(2-methylpyrazolo[1,5-a]pyridin-5-yl)carbamoyl]phenyl]-5-(trifluoromethyl)pyrazol-3-yl]methoxy]benzoic acid] | < 1000 nM
CC(C)Cc1c(Cl)c(C(F)(F)F)nn1-c1cccc(C(=O)N(C)c2cc3c(cc2Cl)OCO3)c1 [compound 110, N-(6-Chloro-1,3-benzodioxol-5-yl)-3-[4-chloro-5-isobutyl-3-(trifluoromethyl)pyrazol-1-yl]-N-methyl-benzamide] | < 1000 nM
Cc1nc2ccc(NC(=O)c3cccc(-n4nc(C)c(Cl)c4C)c3)cc2o1 [Int-045, 3-(4-Chloro-3,5-dimethyl-pyrazol-1-yl)-N-(2-methyl-1,3-benzoxazol-6-yl)benzamide] | > 2000 nM
Cc1cc(C(F)(F)F)nn1-c1cccc(C(=O)N(C)c2ccc3c(c2)OCO3)c1 [compound 091, N-(1,3-Benzodioxol-5-yl)-N-methyl-3-[5-methyl-3-(trifluoromethyl)pyrazol-1-yl]benzamide] | 1000 to 2000 nM
Cc1nc2cc(F)c(NC(=O)c3cccc(-n4nc(C(F)(F)F)c(Cl)c4C)c3)cc2o1 [Int-153, 3-[4-Chloro-5-methyl-3-(trifluoromethyl)pyrazol-1-yl]-N-(5-fluoro-2-methyl-1,3-benzoxazol-6-yl)benzamide] | < 1000 nM
Cc1nn(-c2cccc(C(=O)N(C)c3ccc4c(c3)OCO4)c2)c(C(C)(C)O)c1Cl [compound 115, N-(1,3-Benzodioxol-5-yl)-3-[4-chloro-5-(1-hydroxy-1-methyl-ethyl)-3-methyl-pyrazol-1-yl]-N-methyl-benzamide] | 1000 to 2000 nM
Cc1nn(-c2cccc(C(=O)Nc3ccc4c(c3)COC4)c2)c(C)c1Cl [Int-051] | > 2000 nM
Cc1nn(-c2cccc(C(=O)N(C)c3ccc4c(c3)NCCO4)c2)c(C)c1Cl [compound 038, 3-(4-Chloro-3,5-dimethyl-pyrazol-1-yl)-N-(3,4-dihydro-2H-1,4-benzoxazin-4-ium-6-yl)-N-methyl-benzamide 2,2,2-trifluoroacetate] | > 2000 nM
Cc1nc2ccc(N(C)C(=O)c3cccc(-n4nc(C(F)(F)F)c(Cl)c4COc4ccc(C(=O)O)cc4)c3)cc2o1 [compound 233, 4-[[4-Chloro-2-[3-[methyl-(2-methyl-1,3-benzoxazol-6-yl)carbamoyl]phenyl]-5-(trifluoromethyl)pyrazol-3-yl]methoxy]benzoic acid] | < 1000 nM

Reference: US12492193B2, “Pyrazole derivatives for the treatment of cystic fibrosis” (Fondazione Istituto Italiano Di Tecnologia, priority 2017, dated 2025)
